# Experimental data: ChEMBL document CHEMBL1137217, “Further structurally constrained analogues of cis-(6-benzhydrylpiperidin-3-yl)benzylamine with elucidation of bioactive conformation: discovery of 1,4-diazabicyclo[3.3.1]nonane derivatives and evaluation of their biological properties for the monoamine transporters” (J Med Chem, 2004)
# Assays:
# [1] = molecular target: Norepinephrine transporter (Rattus norvegicus, UniProt Q9WTR4); assay: Inhibition of [3H]nisoxetine binding to norepinephrine transporter of rat cerebral cortex; format: tissue-based
# Norepinephrine transporter, sequence (Q9WTR4 whole entry): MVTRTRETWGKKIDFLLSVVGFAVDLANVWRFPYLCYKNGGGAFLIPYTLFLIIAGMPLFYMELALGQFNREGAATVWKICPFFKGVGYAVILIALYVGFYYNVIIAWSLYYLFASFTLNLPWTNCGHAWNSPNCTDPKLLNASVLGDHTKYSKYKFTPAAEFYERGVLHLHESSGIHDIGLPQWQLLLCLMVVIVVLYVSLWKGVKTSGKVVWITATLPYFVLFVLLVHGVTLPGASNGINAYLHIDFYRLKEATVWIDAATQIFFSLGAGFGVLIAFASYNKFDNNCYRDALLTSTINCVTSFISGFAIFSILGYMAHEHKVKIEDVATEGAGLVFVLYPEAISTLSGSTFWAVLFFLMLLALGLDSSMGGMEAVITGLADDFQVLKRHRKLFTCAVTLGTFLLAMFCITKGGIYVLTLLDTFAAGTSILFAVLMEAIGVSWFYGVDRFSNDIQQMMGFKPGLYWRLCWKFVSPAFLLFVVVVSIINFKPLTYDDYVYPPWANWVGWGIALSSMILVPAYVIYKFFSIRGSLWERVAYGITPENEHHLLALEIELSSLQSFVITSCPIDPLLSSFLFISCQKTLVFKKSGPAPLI
# [2] = molecular target: Monoamine transporters; Norepininephrine & dopamine (Rattus norvegicus) (UniProt P23977+Q9WTR4); assay: Relative binding affinity for norepinephrine and dopamine transporter, ratio of IC50; format: protein assay
# [3] = molecular target: T1, Sodium-dependent dopamine transporter (Rattus norvegicus, UniProt P23977); assay: Inhibition of [3H]WIN-35428 binding to dopamine transporter of rat striatum; format: tissue-based
# T1 sequence (P23977 whole entry): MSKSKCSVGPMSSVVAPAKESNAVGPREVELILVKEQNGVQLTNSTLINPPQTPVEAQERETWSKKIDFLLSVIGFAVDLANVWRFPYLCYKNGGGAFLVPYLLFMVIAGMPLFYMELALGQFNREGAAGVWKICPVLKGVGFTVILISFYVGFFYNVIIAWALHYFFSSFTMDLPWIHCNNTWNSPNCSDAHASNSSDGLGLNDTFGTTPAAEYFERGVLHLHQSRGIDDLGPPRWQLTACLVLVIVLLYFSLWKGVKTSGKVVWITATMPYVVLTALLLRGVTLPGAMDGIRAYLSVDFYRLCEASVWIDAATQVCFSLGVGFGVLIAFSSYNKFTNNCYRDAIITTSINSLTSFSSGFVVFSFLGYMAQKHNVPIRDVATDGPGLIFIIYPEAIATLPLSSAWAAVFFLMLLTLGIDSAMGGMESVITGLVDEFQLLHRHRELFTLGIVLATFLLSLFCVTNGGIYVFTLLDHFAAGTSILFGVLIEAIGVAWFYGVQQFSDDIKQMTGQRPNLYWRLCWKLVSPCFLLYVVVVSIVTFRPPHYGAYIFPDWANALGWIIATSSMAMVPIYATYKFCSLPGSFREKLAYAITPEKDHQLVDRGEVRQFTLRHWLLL
# [4] = molecular target: Monoamine transporters; serotonin & dopamine (Rattus norvegicus) (UniProt P31652+P23977); assay: Relative binding affinity for serotonin and dopamine transporters, ratio of IC50; format: protein assay
# Monoamine transporters; serotonin & dopamine (Rattus norvegicus), sequence (P23977 whole entry, looked up): as the sequence (P23977 whole entry) above
# Monoamine transporters; serotonin & dopamine (Rattus norvegicus), sequence (P31652 whole entry, looked up): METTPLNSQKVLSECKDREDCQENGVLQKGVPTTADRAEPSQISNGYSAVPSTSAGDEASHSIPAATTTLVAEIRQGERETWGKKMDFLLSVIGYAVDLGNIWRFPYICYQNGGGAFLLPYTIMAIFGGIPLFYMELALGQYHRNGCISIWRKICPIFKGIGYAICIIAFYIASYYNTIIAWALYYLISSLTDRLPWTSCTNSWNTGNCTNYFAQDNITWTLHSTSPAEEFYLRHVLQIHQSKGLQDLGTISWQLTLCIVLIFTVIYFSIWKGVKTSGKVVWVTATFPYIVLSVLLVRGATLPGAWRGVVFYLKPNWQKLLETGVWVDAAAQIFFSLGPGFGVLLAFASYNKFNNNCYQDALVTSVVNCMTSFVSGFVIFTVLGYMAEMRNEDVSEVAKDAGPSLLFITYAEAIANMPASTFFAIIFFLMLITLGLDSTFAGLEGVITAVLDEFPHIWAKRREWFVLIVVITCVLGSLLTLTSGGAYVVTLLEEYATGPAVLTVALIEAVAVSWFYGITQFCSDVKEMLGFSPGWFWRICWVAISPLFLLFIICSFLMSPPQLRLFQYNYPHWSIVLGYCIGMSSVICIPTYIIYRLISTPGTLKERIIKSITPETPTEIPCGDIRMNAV
# [5] = molecular target: Sodium-dependent serotonin transporter (Rattus norvegicus, UniProt P31652); assay: Inhibition of [3H]citalopram binding to serotonin transporter of rat cerebral cortex; format: tissue-based
# Sodium-dependent serotonin transporter, sequence (P31652 whole entry): as the sequence (P31652 whole entry, looked up) above
# [6] = molecular target: Sodium-dependent dopamine transporter (Rattus norvegicus) (UniProt P23977); assay: Ratio of IC50 for [3H]DA uptake to and dopamine transporter binding
# Sodium-dependent dopamine transporter (Rattus norvegicus), sequence (P23977 whole entry): as the sequence (P23977 whole entry) above
# [7] = molecular target: T1, Sodium-dependent dopamine transporter; assay: Concentration required to inhibit [3H]DA (dopamine) uptake into rat striatal synaptosomes; format: functional, subcellular, Brain
SMILES,IC50 [1] [µM],Selectivity [2],IC50 [3] [µM],Selectivity [4],IC50 [5] [µM],Selectivity [6],IC50 [7] [µM]
O=S(=O)(Nc1ccc(CN2CCN3CC2CCC3C(c2ccccc2)c2ccccc2)cc1)c1ccc(Cl)cc1 (stereo unspecified),3.48,9,0.371,11,4.13,,
Fc1ccc(CCN2CCN3CC2CCC3C(c2ccccc2)c2ccccc2)cc1 (stereo unspecified),> 10,> 18,0.565,4,2.55,,
Fc1ccc(CNC2CCC(C(c3ccccc3)c3ccccc3)N(Cc3ccc(F)cc3)C2)cc1 (stereo unspecified),12.6,12,1.24,10,18.9,,
COc1ccc(CN2CCN3C[C@@H]2CC[C@H]3C(c2ccccc2)c2ccccc2)cc1,> 10,> 444,0.0225,384,8.65,0.8,0.0184
CN(Cc1ccc(F)cc1)C1CCC(C(c2ccccc2)c2ccccc2)N(C)C1 (stereo unspecified),7,31,0.225,10,2.36,,
COc1ccc(CNC2CCC(C(c3ccccc3)c3ccccc3)NC2)cc1 (stereo unspecified),1.11,23,0.0475,22,1.04,0.85,0.0405
N#Cc1ccc(CNC2CCC(C(c3ccccc3)c3ccccc3)NC2)cc1 (stereo unspecified),1.67,148,0.0112,38,0.434,0.8,0.0091
Fc1ccc(CNC2CCC(C(c3ccccc3)c3ccccc3)NC2)cc1 (stereo unspecified),1.42,,0.0338,,,,0.0538
CN1CCN2CC1CCC2C(c1ccccc1)c1ccccc1 (stereo unspecified),60.1,13,4.71,33,157,,
COc1ccc(CN2CCN3C[C@H]2CC[C@@H]3C(c2ccccc2)c2ccccc2)cc1,> 10,> 30,0.329,20,6.63,0.8,0.269
